Test results reported in US12016849B2, “Magnesium picolinate compositions and methods of use” (Bonafide Health, LLC, priority 2016, dated 2024).

Tests used:
[1] = Stability of magnesium picolinate (hygroscopicity, storage, light); type: physicochemical
From the text: Magnesium picolinate compositions of the invention were stable during storage at room temperature.

male Wistar rats [2] = experiment: Morris water maze; type: in vivo
Procedure: (§1) Seven male Wistar rats per treatment arm (age: 8 week, weight: 180±20 g) were housed in a controlled environment with a 12:12-h light-dark cycle at 22° C. and were provided with rat chow and water ad libitum. Following a 7-day acclimatization period, animals were randomly be divided into the following groups: • 1. Control (no treatment); • 2. Control+MgO (500 mg elemental Mg/kg diet), • 3. Control+MgPic (500 mg elemental Mg/kg diet), • 4. HFD (fed with high fat diet); • 5. HFD+MgO (500 mg elemental Mg/kg diet), • 6. HFD+MgPic (500 mg elemental Mg/kg diet).
(§2) The MgPic administered was prepared in accordance with the methods of the inventions described herein. […]
(§3) Laboratory Analyses—Following the treatment period, plasma was extracted and used for the determination of glucose, insulin, visceral fat, magnesium, and leptin concentrations, which was performed with an automatic analyzer (Samsung). Brain antioxidant enzyme catalase (CAT) and glutathione peroxidase (GSH-Px) were measured using a commercially available assay kit (Cayman Chemical, Ann Arbor, Mich., USA) according to the manufacturer's instructions. […] The swimming pathway and latency in locating the hidden platform was recorded for each trial. […] All samples were processed to produce clear digests, and the total magnesium in each sample was measured by flame AAS (Perkin Elmer) using established and fully verified methods. […]

[3] = Magnesium and picolinic acid AUC0→∞, double-blind clinical study; type: in vivo; settings: 500 mg magnesium picolinate vs control 916 mg picolinic acid and 90 mg magnesium
Procedure: (§4) In a double-blind clinical study, 30 subjects are divided into two groups (n=15). The control group receives a supplement containing 916 mg picolinic acid and 90 mg of magnesium. The trial group receives a supplement containing 500 mg of magnesium picolinate (46 mg of magnesium and 454 mg of picolinate), or one-half the total dose of picolinate and magnesium of the control group. Magnesium and picolinic acid AUC0→∞ (ng·h/mL) are measured in each subject. The mean magnesium and picolinic acid AUC0→∞ for the trial group are between 80-120% of the control group at each time point.

[4] = tested on: glutathione peroxidase (GSH-Px); experiment: Brain antioxidant enzyme activity, commercial assay kit; type: in vivo, Wistar rats; settings: rats, 500 mg elemental Mg/kg diet, 8 weeks; compared to magnesium oxide
Procedure: as §1, §2, §3

[5] = tested on: Brain antioxidant enzyme catalase (CAT); experiment: as above; type: in vivo, Wistar rats; settings: rats, 500 mg elemental Mg/kg diet, 8 weeks; compared to magnesium oxide
Procedure: as §1, §2, §3

[6] = Serum levels of magnesium and picolinic acid, double-blind clinical study; type: in vivo; settings: 500 mg magnesium picolinate vs control 916 mg picolinic acid and 90 mg magnesium; at 1, 4, 6 and 8 hours
Procedure: as §4, with “Serum levels of” for “Magnesium and”, “(ng/mL) and serum levels of magnesium (ng/mL)” for “AUC0→∞ (ng·h/mL)”, “at one hour, four hours, six hours, and eight hours.” for “in each subject.”, “mean serum” for “mean”, “levels” for “and picolinic acid AUC0→∞”, “point. The mean serum picolinic acid levels for the trial group are between 80-120% of the control group at each time point.” for “point.”

[7] = Cerebrospinal fluid (CSF) levels of magnesium and picolinic acid, double-blind clinical study; type: in vivo; settings: 500 mg magnesium picolinate vs control 916 mg picolinic acid and 90 mg magnesium; four and eight hours, spinal tap
Procedure: In a double-blind clinical study, 30 subjects are divided into two groups (n=15). The control group receives a supplement containing 916 mg picolinic acid and 90 mg of magnesium. The trial group receives a supplement containing 500 mg of magnesium picolinate (46 mg of magnesium and 454 mg of picolinate), or one-half the total dose of picolinate and magnesium of the control group. CSF levels of picolinic acid (ng/mL) and serum levels of magnesium (ng/mL) are measured at four hours and eight hours via spinal tap. The mean CSF magnesium levels for the trial group are between 80-120% of the control group at each time point. The mean CSF picolinic acid levels for the trial group are between 80-120% of the control group at each time point. Thus, magnesium picolinate provides 80-120% of the brain penetration of magnesium, and 80-120% of the brain penetration of picolinic acid, relative to twice the dose of magnesium and picolinic acid alone.

[8] = Solubility of the isolated product; type: physicochemical
Procedure: Picolinic acid (3.7 g, 30 mmol) and magnesium acetate tetrahydrate (3.2 g, 15 mmol) were suspended in 25 mL of water. The slurry was stirred and heated at reflux overnight and then filtered to isolate 1.7 grams of crystalline MgPic. The remaining filtrate was cooled and evaporated to dryness, providing an additional 2.2 grams of amorphous MgPic with traces of residual acetate. The acetate was removed by washing the solid with ethanol to provide a 96% overall yield of MgPic (crystalline and amorphous). The ^1H-NMR spectrum of the product (FIG. 2) is consistent with the spectrum of a metal picolinate salt. […] The product contained acceptable trace levels of barium and other heavy metals of less than 200 ppm of each element tested. As such, embodiments of a MgPic composition may comprise less than about 200 ppm of barium and/or other heavy metals. In some embodiments, these compositions may comprise less than about 150, less than about 100, less than 50, or less than 20 ppm of barium and/or other heavy metals.
Picolinic acid and magnesium oxide (0.5 equiv.) were added to water, giving a white, stirrable slurry. The slurry was heated to 95-100° C. for 3 hours, and more water was added, tripling the initial amount of water [note: the procedure was based on the preparation of a related magnesium salt using magnesium oxide, in which the initial slurry completely dissolved at 80-90° C. […]

male Wistar rats [9] = experiment: Laboratory analyses after 8 weeks of treatment (glucose, insulin, visceral fat, leptin); type: in vivo; settings: 500 mg elemental Mg/kg diet, oral
Procedure: as §1
(§5) The MgPic administered was prepared in accordance with the methods of the inventions described herein. All treatments were administered daily as an oral supplement per day for 8 weeks. […] The rats were subjected to several study protocols during the treatment period.
Laboratory Analyses—Following the treatment period, plasma was extracted and used for the determination of glucose, insulin, visceral fat, magnesium, and leptin concentrations, which was performed with an automatic analyzer (Samsung). Brain antioxidant enzyme catalase (CAT) and glutathione peroxidase (GSH-Px) were measured using a commercially available assay kit (Cayman Chemical, Ann Arbor, Mich., USA) according to the manufacturer's instructions. […] Morris Water Maze—The water maze test was performed according to methods known to those of skill in the art. The water maze was conducted in a large circular black pool (160 cm in diameter) containing water (temperature at 24±2° C.) that had been colored with a nontoxic black dye to contrast the rat. A 12-cm-diameter black-colored round platform was placed 1.5 cm below the water surface. All of the rats were placed in the water maze room 1 h before the water maze trial daily. The rats were given a maximum time of 60 s to find the hidden platform, and they were allowed to remain on the platform for 30 s. […] The rats were given a daily session of four trials per day for six consecutive days. The swimming pathway and latency in locating the hidden platform was recorded for each trial. On the seventh day, the time taken to reach the quadrant and the number of crossings of the target quadrant was tested with the platform removed. […] It is noted that rats fed a high fat diet experience diminished memory function. […] Atomic Absorption Spectroscopy—Rat sera, liver, brains were removed and the cerebral cortex and hippocampus were dissected for analysis after the treatment period. The tissues were stored at −70° C. until analysis using atomic absorption spectroscopy (AAS). […] All samples were processed to produce clear digests, and the total magnesium in each sample was measured by flame AAS (Perkin Elmer) using established and fully verified methods. […]

[10] = Magnesium and picolinic acid Cmax and Tmax, double-blind clinical study; type: in vivo; settings: 500 mg magnesium picolinate vs control 916 mg picolinic acid and 90 mg magnesium
Procedure: as §4, with “Cmax (ng/mL) and Tmax (minutes)” for “AUC0→∞ (ng·h/mL)”, “subject. […] Thus, magnesium picolinate provides 80-120% of the maximum serum concentration of magnesium and picolinic acid relative to twice the dose of magnesium alone, or relative to twice the dose of picolinic acid alone.” for “subject.”, “Tmax” for “AUC0→∞”, “50-80%” for “80-120%”, “point. Thus, magnesium picolinate delivers the maximum amount of bioavailable magnesium and picolinic acid in 50-80% less time relative to twice the dose of magnesium alone, or relative to twice the dose of picolinic acid alone.” for “point.”

[11] = Total magnesium in rat sera, liver and brain by atomic absorption spectroscopy; type: in vivo, Wistar rats; settings: rats, 500 mg elemental Mg/kg diet, oral, 8 weeks; compared to magnesium oxide and control
Procedure: as §1, §5
Laboratory Analyses—Following the treatment period, plasma was extracted and used for the determination of glucose, insulin, visceral fat, magnesium, and leptin concentrations, which was performed with an automatic analyzer (Samsung). Brain antioxidant enzyme catalase (CAT) and glutathione peroxidase (GSH-Px) were measured using a commercially available assay kit (Cayman Chemical, Ann Arbor, Mich., USA) according to the manufacturer's instructions. […] Morris Water Maze—The water maze test was performed according to methods known to those of skill in the art. The water maze was conducted in a large circular black pool (160 cm in diameter) containing water (temperature at 24±2° C.) that had been colored with a nontoxic black dye to contrast the rat. A 12-cm-diameter black-colored round platform was placed 1.5 cm below the water surface. All of the rats were placed in the water maze room 1 h before the water maze trial daily. […] The swimming pathway and latency in locating the hidden platform was recorded for each trial. […] All samples were processed to produce clear digests, and the total magnesium in each sample was measured by flame AAS (Perkin Elmer) using established and fully verified methods. […]

[12] = compared to control specimens and those given magnesium oxide

O=C(O)c1ccccn1 [amorphous solid, magnesium picolinate]
signs of degradation ([1]; after 30 days at 75% relative humidity and 40° C.): no signs of degradation | signs of degradation ([1]; after 60 days at 40% relative humidity and 25° C.): no signs of degradation | hygroscopicity ([1]; as measured by weight): not hygroscopic | stability / color change on exposure to light [1]: did not change color

O=C(O)c1ccccn1 [MgPic, magnesium picolinate]
memory function: time taken to reach the quadrant with the hidden platform (FIG. 5) (male Wistar rats [2]; rats fed a high fat diet and rats fed the control diet, 500 mg elemental Mg/kg diet): improved memory function | memory function (FIG. 6) (male Wistar rats [2]; rats fed a high fat diet, compared to rats administered magnesium oxide): improvements | mean magnesium AUC0→∞, relative to control group [3]: 80-120% | mean picolinic acid AUC0→∞, relative to control group [3]: 80-120% | brain antioxidant enzyme (GSH-Px) activity (FIG. 7B) [4]: superior improvements of increasing brain antioxidant enzyme (GSH-Px) activity | brain antioxidant enzyme (CAT) activity (FIG. 7A) [5]: superior improvements of increasing brain antioxidant enzyme (CAT) activity | mean serum magnesium levels, relative to control group [6]: 80-120% | mean serum picolinic acid levels, relative to control group [6]: 80-120% | stability during storage ([1]; 25° C./40% relative humidity): stable | stability during storage ([1]; 40° C./75% relative humidity): stable | stability / color change on exposure to light ([1]; listed as MgPic composition): stable on exposure to light | stability during storage ([1]; room temperature): stable | mean CSF magnesium levels, relative to control group [7]: 80-120% | mean CSF picolinic acid levels, relative to control group [7]: 80-120% | solubility in water ([8]; product of Example 2, clear and colorless solution): readily soluble in water | solubility in ethanol/water ([8]; product of Example 13): soluble in ethanol/water | glucose (FIG. 4D-4E) (male Wistar rats [9]; [12]): reduced amounts | insulin (FIG. 4D-4E) (male Wistar rats [9]; [12]): reduced amounts | leptin secretion (FIG. 4G) (male Wistar rats [9]; compared to magnesium oxide): unexpectedly superior reduction of leptin secretion | visceral fat (FIG. 4F) (male Wistar rats [9]; compared to magnesium oxide): unexpectedly improved reduction of visceral fat | mean magnesium Cmax, relative to control group [10]: 80-120% | mean magnesium Tmax, relative to control group [10]: 50-80% | mean picolinic acid Cmax, relative to control group [10]: 80-120% | mean picolinic acid Tmax, relative to control group [10]: 50-80% | magnesium levels in brain (FIG. 4A-4C) [11]: substantially improved magnesium levels | magnesium levels in liver (FIG. 4A-4C) [11]: substantially improved magnesium levels | magnesium levels in serum (FIG. 4A-4C) [11]: substantially improved magnesium levels
